One test relates to HL-60. Nature of the test: Cell proliferation assay (CellTiter-Glo), HL-60. The test is classed as cell-based. Conditions: Homo sapiens, HL-60 cells, 72 h. Here is the method:
(§1) The cells were prepared in the required fashion (suspension or adherent). The cells were initially washed once in the culture medium that they would be finally treated in. Following this 10 ml of the test medium was added and the cells. The mixture was pipetted gently several times.
(§2) The cells were counted and then the volume was spun down to the volume necessary for the total number of cells needed. The cells were then resuspended in the appropriate test medium to the desired concentration. In general, the final concentration of non-adherent cells was 2×10^5 cells/ml i.e. 10,000 cells per 50 μ1. Once the desired concentration had been reached, 50 µl of the cells were added to the appropriate wells and the cells were incubated for 72 h at 37° C.
(§3) CellTiter-Glo Luminescent Assay (Kit G7571—See Promega's Instruction Manual for Additional Details):
(§4) Both reagents were pre-warmed to RT. The buffer was thawed in a 37° C. water bath until it had just completely thawed. It was then left on a bench at RT for at least 30 min.
(§5) Following this the substrate and buffer were mixed together. To ensure that the substrate was dissolved, the mixture was inverted several times.
(§6) The cell culture plates were removed from the incubator and were then allowed to adjust to RT for at least 30 min.
(§7) Afterwards 40 μL of the reagent was added to 100 μL of the culture medium. […] The plates were then incubated for 10 min on the bench. The luminescence could then be read using a luminescence plate reader.
A general note: In ATP-based viability assays light output follows the ATP content of the culture.

Another test deals with MV4; 11. Nature of the test: Cell proliferation assay (CellTiter-Glo), MV4;11. The format is cell-based. The note with it: Homo sapiens, MV4;11 cells, 72 h. As to the method:
as §1, §2, §3, §4, §5, §6, §7

The target of a further test is BRD-3 (Domain 1) (Homo sapiens (Human), UniProt Q15059). Nature of the test: AlphaScreen BRD binding assay, BRD-3 (Domain 1). Conditions: acetyl-histone H4 peptide 2.5 nM, protein 80 nM. As to the method: (§8) Biological Characterization Assay Conditions Binding Assay
BRD binding and inhibition was assessed by measuring the interaction of biotinylated acetyl-histone H4 peptide (Anaspec #64989) with the BRD target protein utilising AlphaScreen® technology (Perkin Elmer). In a white 384-well low volume plate (Greiner #784076), 100 nL of compound series in DMSO (0.5% final concentration) was added to the BRD target protein (80 nM final). After 30 min incubation at RT, H4 peptide was added to a final concentration of 2.5 nM. AlphaScreen streptavidin donor beads and AlphaScreen nickel chelate acceptor beads were added to a final concentration of 10 ug/mL each and allowed to incubate in a darkened environment for 1 h at RT. Plates were read on an EnVision plate reader (Perkin Elmer) and IC50's calculated using a four parameter non-linear curve fit.
These conditions are identical for all BRDs screened except BRD2D2 which uses 160 nM protein and 1.25 nM peptide.
For orientation: In Alpha technology, singlet oxygen from a donor bead excites a nearby acceptor bead.

A further test concerns the target BRD-4 (Domain 2) (Homo sapiens (Human), UniProt O60885). Put plainly: AlphaScreen BRD binding assay, BRD-4 (Domain 2). Conditions: acetyl-histone H4 peptide 2.5 nM, protein 80 nM. Here is the method: as §8
(§9) AlphaScreen streptavidin donor beads and AlphaScreen nickel chelate acceptor beads were added to a final concentration of 10 ug/mL each and allowed to incubate in a darkened environment for 1 h at RT. Plates were read on an EnVision plate reader (Perkin Elmer) and IC50's calculated using a four parameter non-linear curve fit.

In another test the target is BRD-4 (Domain 1) (Homo sapiens (Human), UniProt O60885). Nature of the test: AlphaScreen BRD binding assay, BRD-4 (Domain 1). Conditions: acetyl-histone H4 peptide 2.5 nM, protein 80 nM. Here is the method: as §8, §9
The target of a further test is BRD-2 (Domain 1) (Homo sapiens (Human), UniProt P25440). Put plainly: AlphaScreen BRD binding assay, BRD-2 (Domain 1). Conditions: acetyl-histone H4 peptide 2.5 nM, protein 80 nM. As to the method: as §8, §9
In a further test the target is BRD-2 (Domain 2) (Homo sapiens (Human), UniProt P25440). Put plainly: AlphaScreen BRD binding assay, BRD-2 (Domain 2). Conditions: 160 nM protein and 1.25 nM peptide. Here is the method:
as §8, §9

Where only a bound is given, the exact number is not on record here.

Chain of BRD-2 (Domain 2) (P25440 344-453): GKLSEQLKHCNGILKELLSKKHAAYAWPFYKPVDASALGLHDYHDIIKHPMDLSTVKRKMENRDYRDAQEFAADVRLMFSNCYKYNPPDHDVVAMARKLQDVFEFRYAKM
Chain of BRD-3 (Domain 1) (Q15059 34-140): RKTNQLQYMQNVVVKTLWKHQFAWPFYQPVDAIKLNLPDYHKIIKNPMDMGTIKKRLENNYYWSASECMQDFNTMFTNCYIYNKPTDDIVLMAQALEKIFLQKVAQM
Chain of BRD-2 (Domain 1) (P25440 74-180): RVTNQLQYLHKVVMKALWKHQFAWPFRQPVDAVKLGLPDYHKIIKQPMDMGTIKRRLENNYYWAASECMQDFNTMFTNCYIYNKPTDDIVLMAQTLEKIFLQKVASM

On to `Cc1nnn2c1-c1ccc(C(=O)NC(C)c3ccccc3)cc1N(c1ccc(Cl)cc1)CC2` (stereo in doubt) [Example 35, 7-(4-chlorophenyl)-1-methyl-N—((R)-1-phenylethyl)-6,7-dihydro-5H-benzo[f][1,2,3]triazolo[1,5-d][1,4]diazepine-9-carboxamide], for which the IC50 (as a rule, the concentration needed to halve the response being measured) was less than 1000 nM in the test on HL-60, less than 1000 nM in the test with MV4; 11 and less than 100 nM on BRD-3 (Domain 1).
Take `Cc1nnn2c1-c1ccc(C(=O)NC(C)c3ccccc3)cc1N(c1ccc(Cl)cc1)CC2` (stereo in doubt) [Example 39, 7-(4-chlorophenyl)-1-methyl-N—((S)-1-phenylethyl)-6,7-dihydro-5H-benzo[f][1,2,3]triazolo[1,5-d][1,4]diazepine-9-carboxamide]: the concentration for half-maximal inhibition (IC50) in the test on HL-60 was less than 1000 nM; with MV4; 11 it was less than 1000 nM; on BRD-3 (Domain 1), less than 100 nM.
Consider `Cc1ccc(-c2ccc3c(c2)N(c2ccc(Cl)cc2)CCn2nnc(C)c2-3)cn1` [Example 7, 7-(4-Chlorophenyl)-1-methyl-9-(6-methylpyridin-3-yl)-6,7-dihydro-5H-benzo[f][1,2,3]triazolo[1,5-d][1,4]diazepine], for which the IC50 on BRD-4 (Domain 2) is less than 100 nM; in the test on HL-60 it was less than 1000 nM; in the test with MV4; 11 it was less than 1000 nM; on BRD-3 (Domain 1), less than 100 nM; at BRD-4 (Domain 1), less than 100 nM.
As to `Cc1nnn2c1-c1ccc(-c3ccc(N)nc3)cc1N(c1ccc(Cl)cc1)CC2` [Example 8, 5-(7-(4-Chlorophenyl)-1-methyl-6,7-dihydro-5H-benzo[f][1,2,3]triazolo[1,5-d][1,4]diazepin-9-yl)pyridin-2-amine], the IC50 on BRD-4 (Domain 2) was less than 100 nM; in the test with HL-60, less than 1000 nM; with MV4; 11, less than 1000 nM; on BRD-3 (Domain 1), less than 100 nM; on BRD-4 (Domain 1), less than 100 nM.
As for `Cc1nnn2c1-c1ccc(-c3cc[nH]n3)cc1N(c1ccc(Cl)cc1)CC2` [Example 10, 7-(4-Chlorophenyl)-1-methyl-9-(1H-pyrazol-3-yl)-6,7-dihydro-5H-benzo[f][1,2,3]triazolo[1,5-d][1,4]diazepine], the half-inhibitory concentration (IC50) is less than 100 nM on BRD-4 (Domain 2); less than 1000 nM in the test on HL-60; less than 1000 nM in the test with MV4; 11; less than 100 nM at BRD-3 (Domain 1); less than 100 nM on BRD-4 (Domain 1).
For `Cc1nnn2c1-c1ccc(CCN3CCOCC3)cc1N(c1ccc(Cl)cc1)CC2` [Example 30, 4-(2-(7-(4-chlorophenyl)-1-methyl-6,7-dihydro-5H-benzo[f][1,2,3]triazolo[1,5-d][1,4]diazepin-9-yl)ethyl)morpholine], the IC50 at BRD-4 (Domain 2) lay in the range of 100 to 1000 nM; in the test on HL-60 it was 1000 to 5000 nM; at BRD-3 (Domain 1) it was 100 to 1000 nM; on BRD-2 (Domain 1), 100 to 1000 nM; on BRD-4 (Domain 1), 100 to 1000 nM; at BRD-2 (Domain 2), 100 to 1000 nM.
Turning to `COC(=O)c1ccc2c(c1)N(c1ccc(Cl)cc1)CCn1nnc(C)c1-2` [Example 31, methyl 7-(4-chlorophenyl)-1-methyl-5,6-dihydrotriazolo[1,5-d][1,4]benzodiazepine-9-carboxylate], the IC50 in the test with HL-60 and in the test with MV4; 11 was less than 1000 nM throughout.
On to `Cc1nnn2c1-c1ccc(C(=O)O)cc1N(c1ccc(Cl)cc1)CC2` [Example 32, 7-(4-chlorophenyl)-1-methyl-5,6-dihydrotriazolo[1,5-d][1,4]benzodiazepine-9-carboxylic acid], for which the IC50 in the test with HL-60 is more than 5000 nM; with MV4; 11 it was less than 1000 nM; on BRD-3 (Domain 1) it was less than 100 nM; on BRD-2 (Domain 1) it was 100 to 1000 nM; at BRD-2 (Domain 2), less than 100 nM.
Consider `Cc1nnn2c1-c1ccc(C(=O)Nc3ccccc3)cc1N(c1ccc(Cl)cc1)CC2` [Example 36, 7-(4-chlorophenyl)-1-methyl-N-phenyl-6,7-dihydro-5H-benzo[f][1,2,3]triazolo[1,5-d][1,4]diazepine-9-carboxamide], for which the IC50 was less than 1000 nM in the test with HL-60, less than 1000 nM in the test with MV4; 11 and less than 100 nM on BRD-3 (Domain 1).
As for `Cc1nnn2c1-c1ccc(C(=O)NS(=O)(=O)c3ccccc3)cc1N(c1ccc(Cl)cc1)CC2` [Example 40, 7-(4-chlorophenyl)-1-methyl-N-(phenylsulfonyl)-6,7-dihydro-5H-benzo[f][1,2,3]triazolo[1,5-d][1,4]diazepine-9-carboxamide], the IC50 on BRD-4 (Domain 2) is less than 100 nM; in the test on HL-60 it was more than 5000 nM; in the test on MV4; 11, 1000 to 5000 nM; at BRD-3 (Domain 1) it was less than 100 nM; at BRD-2 (Domain 1), less than 100 nM; on BRD-4 (Domain 1), less than 100 nM. For the same molecule, the concentration for half-maximal inhibition (IC50) at BRD-2 (Domain 2) is less than 100 nM.
For `Cc1nnn2c1-c1ccc(C(=O)NS(C)(=O)=O)cc1N(c1ccc(Cl)cc1)CC2` [Example 41, 7-(4-chlorophenyl)-1-methyl-N-(methylsulfonyl)-6,7-dihydro-5H-benzo[f][1,2,3]triazolo[1,5-d][1,4]diazepine-9-carboxamide], the IC50 is less than 100 nM at BRD-4 (Domain 2), 1000 to 5000 nM in the test with HL-60, less than 1000 nM in the test with MV4; 11 and less than 100 nM at BRD-4 (Domain 1).
As to `Cc1nnn2c1-c1ccc(C(=O)N[C@@H](C)c3ccc(F)cc3)cc1N(c1ccccc1)CC2` [Example 43], the IC50 was less than 100 nM on BRD-4 (Domain 2); less than 1000 nM in the test on HL-60; less than 1000 nM with MV4; 11; less than 100 nM at BRD-2 (Domain 1); less than 100 nM on BRD-4 (Domain 1); less than 100 nM at BRD-2 (Domain 2).
As for `Cc1nnn2c1-c1ccc(C(=O)NOCCO)cc1N(c1ccc(Cl)cc1)CC2` [Example 45, 7-(4-Chlorophenyl)-N-(2-hydroxyethoxy)-1-methyl-6,7-dihydro-5H-benzo[f][1,2,3]triazolo[1,5-d][1,4]diazepine-9-carboxamide], the IC50 on BRD-4 (Domain 2) is less than 100 nM; in the test with HL-60 it was less than 1000 nM; in the test with MV4; 11 it was less than 1000 nM; on BRD-2 (Domain 1), less than 100 nM; at BRD-4 (Domain 1), less than 100 nM; at BRD-2 (Domain 2), less than 100 nM.
As to `CONC(=O)c1ccc2c(c1)N(c1ccc(Cl)cc1)CCn1nnc(C)c1-2` [Example 46, 7-(4-chlorophenyl)-N-methoxy-1-methyl-6,7-dihydro-5H-benzo[f][1,2,3]triazolo[1,5-d][1,4]diazepine-9-carboxamide], the IC50 at BRD-4 (Domain 2) was less than 100 nM; in the test with HL-60, less than 1000 nM; with MV4; 11 it was less than 1000 nM; on BRD-2 (Domain 1), less than 100 nM; at BRD-4 (Domain 1) it was less than 100 nM; on BRD-2 (Domain 2), less than 100 nM.
For `Cc1nnn2c1-c1ccc(-c3nn[nH]n3)cc1N(c1ccc(Cl)cc1)CC2` [Example 51, 7-(4-chlorophenyl)-1-methyl-9-(2H-tetrazol-5-yl)-6,7-dihydro-5H-benzo[f][1,2,3]triazolo[1,5-d][1,4]diazepine], the IC50 is less than 100 nM on BRD-4 (Domain 2), more than 5000 nM in the test on HL-60, less than 1000 nM in the test with MV4; 11 and less than 100 nM on BRD-4 (Domain 1).
